Experimental findings from patent publication US8883799B2, “Tricyclic PI3K inhibitor compounds and methods of use” (Genentech, Inc., priority 2010, dated 2014) are described below.

The test system of one test is MDA-MB-361.1. In words: In vitro cell proliferation assay (CellTiter-Glo), MDA-MB-361.1. It counts as cell-based. To be noted: Cell line: MDA-MB-361.1; Tissue type: breast; Mutation Status: PI3K; read-out: EC50 (μmole). The protocol: (§1) Efficacy of Formula I compounds was measured by a cell proliferation assay employing the following protocol (Promega Corp. Technical Bulletin TB288; Mendoza et al (2002) Cancer Res. 62:5485-5488):
(§2) 1. An aliquot of 100 μl of cell culture containing about 10^4 cells (PC3, Detroit562, or MDAMB361.1) in medium was deposited in each well of a 384-well, opaque-walled plate.
(§3) 2. Control wells were prepared containing medium and without cells.
(§4) 3. The compound was added to the experimental wells and incubated for 3-5 days.
(§5) 4. The plates were equilibrated to room temperature for approximately 30 minutes.
(§6) 5. A volume of CellTiter-Glo® Reagent equal to the volume of cell culture medium present in each well was added.
(§7) 6. The contents were mixed for 2 minutes on an orbital shaker to induce cell lysis.
(§8) 7. The plate was incubated at room temperature for 10 minutes to stabilize the luminescence signal.
(§9) 8. Luminescence was recorded and reported in graphs as RLU=relative luminescence units.
(§10) Alternatively, cells were seeded at optimal density in a 96 well plate and incubated for 4 days in the presence of test compound. Alamar Blue™ was subsequently added to the assay medium, and cells were incubated for 6 hr before reading at 544 nm excitation, 590 nm emission. EC50 values were calculated using a sigmoidal dose response curve fit. The term EC50 refers to the half maximal effective concentration and is the concentration at which a drug induces a response halfway between the baseline and maximum after some specified exposure time. It is commonly used as a measure of drug potency.
(§11) The anti-proliferative effects of Formula I exemplary compounds were measured by the CellTiter-Glo® Assay against various tumor cell lines, including the following: […]
For orientation: In ATP-based viability assays light output follows the ATP content of the culture.

For the next test, the system named is PC3. In words: In vitro cell proliferation assay (CellTiter-Glo), PC3. It counts as cell-based. The following applies: Homo sapiens, PC-3; Cell line: PC3; Tissue type: prostate; Mutation Status: PTEN; read-out: EC50 (μmole). The protocol:
as §1, §2, §3, §4, §5, §6, §7, §8, §9, §10, §11

The next test addresses T1, p110 alpha PI3K (Homo sapiens, UniProt P42336).
T1 construct: purchased Upstate Cell Signaling Solutions, Charlottesville, Va
The experiment in a line: p110α (alpha) PI3K binding assay (fluorescence polarization; alternatively radiometric). To be noted: read-out: IC50, Ki (μmole) PI3K, p110 alpha binding assay. The protocol: Binding Assays: Initial polarization experiments were performed on an Analyst HT® 96-384 (Molecular Devices Corp, Sunnyvale, Calif.). […] After an incubation time of 30 minutes at room temperature, the reactions were stopped by the addition of GRP-1 and PIP3-TAMRA probe (Echelon-Inc., Salt Lake City, Utah) 100 nM and 5 nM final concentrations respectively. Read with standard cut-off filters for the rhodamine fluorophore (λex=530 nm; λem=590 nm) in 384-well black low volume Proxiplates® (PerkinElmer, Wellesley, Mass.) Fluorescence polarization values were plotted as a function of the protein concentration, and the EC50 values were obtained by fitting the data to a 4-parameter equation using KaleidaGraph® software (Synergy software, Reading, Pa.). This experiment also establishes the appropriate protein concentration to use in subsequent competition experiments with inhibitors.
After an incubation time of 30 minutes at room temperature, the reactions were stopped by the addition of GRP-1 and PIP3-TAMRA probe (Echelon-Inc., Salt Lake City, Utah) 100 nM and 5 nM final concentrations respectively. Read with standard cut-off filters for the rhodamine fluorophore (λex=530 nm; λem=590 nm) in 384-well black low volume PROXIPLATES® (PerkinElmer, Wellesley, Mass.) Fluorescence polarization values were plotted as a function of the antagonist concentration, and the IC50 values were obtained by fitting the data to a 4-parameter equation in Assay Explorer® software (MDL, San Ramon, Calif.).
The Formula I compound was serially diluted in 100% DMSO. The kinase reaction was incubated for 1 hr at room temperature, and the reaction was terminated by the addition of PBS. IC50 values were subsequently determined using sigmoidal dose-response curve fit (variable slope).
A general note: Polarisation of emitted light reports the rotation of a fluorescent probe.

SMILES strings stand for the structures.

T1 sequence (P42336 whole entry): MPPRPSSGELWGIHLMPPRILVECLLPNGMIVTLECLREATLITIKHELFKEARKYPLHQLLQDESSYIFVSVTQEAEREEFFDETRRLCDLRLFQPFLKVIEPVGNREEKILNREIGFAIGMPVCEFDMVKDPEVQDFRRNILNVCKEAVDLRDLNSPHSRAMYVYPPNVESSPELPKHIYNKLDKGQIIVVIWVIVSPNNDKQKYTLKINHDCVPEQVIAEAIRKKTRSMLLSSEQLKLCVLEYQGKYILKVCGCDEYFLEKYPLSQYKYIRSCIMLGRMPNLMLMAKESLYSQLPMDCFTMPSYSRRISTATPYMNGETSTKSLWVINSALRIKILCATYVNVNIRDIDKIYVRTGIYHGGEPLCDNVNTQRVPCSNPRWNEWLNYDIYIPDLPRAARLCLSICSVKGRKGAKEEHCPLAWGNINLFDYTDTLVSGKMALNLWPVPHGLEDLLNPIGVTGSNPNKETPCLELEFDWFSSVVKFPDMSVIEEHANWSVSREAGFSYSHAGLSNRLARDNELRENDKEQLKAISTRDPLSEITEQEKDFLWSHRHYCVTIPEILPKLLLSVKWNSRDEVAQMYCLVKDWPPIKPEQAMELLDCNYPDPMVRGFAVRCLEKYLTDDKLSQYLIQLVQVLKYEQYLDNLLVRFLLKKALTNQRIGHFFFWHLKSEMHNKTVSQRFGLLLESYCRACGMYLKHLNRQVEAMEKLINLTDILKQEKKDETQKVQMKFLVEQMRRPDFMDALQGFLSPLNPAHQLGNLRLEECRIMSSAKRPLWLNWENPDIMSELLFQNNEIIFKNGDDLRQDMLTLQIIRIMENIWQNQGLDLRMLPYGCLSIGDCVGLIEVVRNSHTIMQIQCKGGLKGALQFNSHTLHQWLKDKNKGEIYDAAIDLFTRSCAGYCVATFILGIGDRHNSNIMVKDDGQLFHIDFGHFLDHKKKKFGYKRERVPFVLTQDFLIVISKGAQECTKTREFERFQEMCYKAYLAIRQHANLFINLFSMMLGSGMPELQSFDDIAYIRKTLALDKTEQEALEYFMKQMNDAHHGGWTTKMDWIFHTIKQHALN
T1 sequence (P27986 whole entry partner): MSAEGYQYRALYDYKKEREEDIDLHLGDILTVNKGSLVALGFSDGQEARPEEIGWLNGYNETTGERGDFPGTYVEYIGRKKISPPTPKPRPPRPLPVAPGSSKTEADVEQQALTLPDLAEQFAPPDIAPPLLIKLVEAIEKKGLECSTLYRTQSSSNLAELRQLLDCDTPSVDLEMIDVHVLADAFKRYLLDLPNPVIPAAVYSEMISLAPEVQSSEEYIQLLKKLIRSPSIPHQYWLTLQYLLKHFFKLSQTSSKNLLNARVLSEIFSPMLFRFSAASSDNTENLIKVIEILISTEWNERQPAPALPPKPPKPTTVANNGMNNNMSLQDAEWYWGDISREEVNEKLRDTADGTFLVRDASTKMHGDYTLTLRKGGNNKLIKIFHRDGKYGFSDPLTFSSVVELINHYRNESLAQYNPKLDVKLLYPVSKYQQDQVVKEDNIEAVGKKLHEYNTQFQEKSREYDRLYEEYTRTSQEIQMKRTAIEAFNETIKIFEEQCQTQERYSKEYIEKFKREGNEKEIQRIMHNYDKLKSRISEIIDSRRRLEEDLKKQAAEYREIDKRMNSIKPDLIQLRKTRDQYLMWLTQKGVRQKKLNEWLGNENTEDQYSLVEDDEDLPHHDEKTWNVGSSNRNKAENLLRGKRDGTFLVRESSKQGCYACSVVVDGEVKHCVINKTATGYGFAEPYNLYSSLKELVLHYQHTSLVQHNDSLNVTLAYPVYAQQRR

Consider `CC1(C)OCCn2c1nc1c(N3CCOCC3)nc(-c3ccc(N)cn3)nc12` [Compound 138, 6-(6,6-dimethyl-4-morpholino-8,9-dihydro-6H-[1,4]oxazino[3,4-e]purin-2-yl)pyridine-3-amine], for which the EC50 with MDA-MB-361.1 and in the test with PC3 was over 10000 nM in each case. On p110 alpha PI3K, the 50% inhibitory concentration (IC50) (usually the concentration needed to halve the response being measured) is over 695 nM.

In the case of `CN(C)c1cnc(-c2nc(N3CCOCC3)c3nc4n(c3n2)CCOC4(C)C)cn1` [Compound 163, 5-(6,6-dimethyl-4-morpholino-8,9-dihydro-6H-[1,4]oxazino[3,4-e]purin-2-yl)-N,N-dimethylpyrazin-2-amine], the concentration giving a half-maximal response (EC50) in the test with MDA-MB-361.1 and in the test on PC3 was over 10000 nM in each case. At p110 alpha PI3K, the half-maximal inhibitory concentration (IC50) is over 695 nM.

Regarding `CC(C)Cn1cc(-c2nc(N3CCOCC3)c3nc4n(c3n2)CCOC4(C)C)cn1` [Compound 148, 2-(1-isobutyl-1H-pyrazol-4-yl)-6,6-dimethyl-4-morpholino-8,9-dihydro-6H-[1,4]oxazino[3,4-e]purine], the EC50 in the test on MDA-MB-361.1 and in the test on PC3 was over 10000 nM in each case. For the same molecule, the IC50 on p110 alpha PI3K was over 695 nM.

As for `Oc1cccc(-c2nc(N3CCOCC3)c3nc4n(c3n2)CCOC4C(F)(F)F)c1` (centres unmarked) [Compound 170, 3-(4-morpholino-6-(trifluoromethyl)-8,9-dihydro-6H-[1,4]oxazino[3,4-e]purin-2-yl)phenol], the concentration for a half-maximal effect (EC50) (usually the concentration that produces a half-maximal response) with MDA-MB-361.1 worked out at 920 nM; in the test on PC3, 1100 nM.
